Measurements reported in patent publication US10857128B2, “Methods and compositions for treating inflammatory diseases” (Helmholtz Zentrum München Deutsches Forschungszentrum für …, priority 2017, dated 2020).

What was measured:
[1] = tested on: murine naïve CD4+ T cells; assay: In vitro differentiation of murine primary T cells (Th1, Th2, Treg); assay type: cell-based, Balb/c mice; details: 10 or 50 μM D-Trp
Excerpt: Differentiation of murine primary T cells. Murine spleens from female Balb/c mice were filtered through a 40 μm filter to generate single cell suspensions. These were then subjected to red blood cell lysis by using RBC lysis buffer (Biolegend, San Diego, USA) according to the manufacturer's recommendations. Afterwards, naïve CD4^+ T cells were isolated via magnetic-activated cell sorting (MACS) using the naïve CD4^+ T cell isolation kit (Miltenyi Biotec, Bergisch-Gladbach, Germany). The resulting naïve CD4^+ T cells were cultured in 96 wells plates (1×10^6 cells/ml Medium) in TexMACS medium supplemented with 10% FCS, 0.01 mM 2-Mercaptoethanol, rIL-2 (10 ng/ml) as well as MACSiBead particles with anti-CD3 and anti-CD28 (1×10^6 beads per 1×10^6 cells) (all Miltenyi Biotec). Cells were differentiated over a period of 6 days towards Th1 (10 ng/ml IL12 and 10 μg/ml anti-IL4, derived from Cytobox Th1), Th2 (10 ng/ml II4 and 10 μg/ml anti-Ifnγ, derived from Cytobox Th2) and Treg (5 ng/ml) (all Miltenyi Biotec). Differentiation of cells was assessed by flow cytometry (see FIG. 15 for gating strategy), enhanced cytometric bead array (CBA) from cell culture supernatants and qRT-PCR. Prior to CBA and flow cytometry, cells were stimulated with monensin (0.7 μL/mL, BD Golgi Stop, BD Bioscience, Heidelberg, Germany) for 4 h at 37° C. in the prescence of lonomycin (500 ng/ml, Sigma Aldrich, Missouri, USA) and PMA (5 ng/ml, Sigma Aldrich, Missouri, USA).
Assessment of cytokines by cytometric bead array. Levels of II4, II5 and II13 were analysed in BALF and cell culture supernatants using an enhanced cytometric bead array (eCBA, Fex Set Kits, BD Biosciences, Franklin Lakes, N.J., USA) according to the manufacturer's guidelines.
Gene expression analysis. Total RNA was isolated from homogenized lung tissue or cell culture using the miRNeasy Micro Kit according to manufacturer's instructions (Qiagen, Venlo, Netherlands). Concentrations were determined using a NanoDrop® ND-1000 (NanoDrop Technologies, Erlangen, Germany) spectrophotometer. mRNA was transcribed to cDNA with the QuantiTect Rev. Transcription kit (Qiagen, Venlo, Netherlands) and PCR for specific genes was performed on a LightCycler 480 platform with Light Cycler 480 SYBR Green I Mastermix (Roche, Mannheim, Germany).

[2] = tested on: gut microbiota; assay: Gut microbial diversity by 16S rRNA barcoding of caecum samples; assay type: in vivo, Balb/c mice
Experimental: Bacterial 16S rRNA gene amplification and diversity analysis. Diversity analysis of 16S rRNA genes was performed by amplicon sequencing. In the first PCR reaction, bacterial genomic DNA was subjected to 16S rRNA gene amplifications using the primer S-D-Bact-0785-a-S-18 [5′-GGMTTAGATACCCBDGTA-3′] (SEQ ID NO: 1) and S-*-Univ-1100-a-A-15 [5′-[…]-3′] (SEQ ID NO: 2) as already mentioned. The reaction mixture of 25 μL in total was composed of 5 ng×μL-1 template DNA, 10 μM of each primer, 10 mM dNTPs (Fermentas, Vilnius, Lithuania), 5% of dimethyl sulfoxide (Sigma-Aldrich, St. Louis, USA), 5 U×μL-1 of FastStart High Fidelity Polymerase (Roche Diagnostics, Mannheim, Germany), 10× FastStart Buffer, and nuclease-free water (Life Technologies, Carlsbad, Calif., USA). The PCR started with an initialization at 95° C. for 5 min, followed by 28 cycles of denaturation at 94° C. for 45 sec, annealing at 44° C. for 45 sec, and elongation at 72° C. for 45 sec. A final elongation step at 72° C. for 5 min completed the PCR reaction. To minimize contamination with primer dimers, generated fragments were cut out of the gel after standard agarose gel electrophoresis and purified with the NucleoSpin Gel and PCR Clean-up Kit (Macherey-Nagel, Düren, Germany).
During the second PCR, Illumina sequencing adapters as well as dual indices were attached to the purified amplicons using the Nextera XT Index Kit (Illumina, San Diego, Calif., USA). The reaction volume was 50 μL in total and contained 5 μL of genomic DNA, 5 μL of each Nextera XT Index Primer, 25 μl 2× KAPA HiFi HotStart ReadyMix (Kapa Biosystems, Wilmington, Mass., USA), and 10 μL of nuclease-free water (Life Technologies, Carlsbad, Calif., USA). The PCR reaction was performed according to the following thermal profile: 95° C. for 3 min, followed by 8 cycles of 95° C. for 30 sec, 55° C. for 30 sec, 72° C. for 30 sec, and finalized by 72° C. for 5 min. The PCR products were cleaned up with the Agencourt AMPure XP system (Beckman Coulter, Brea, Calif., USA), DNA was quantified and the DNA quality was controlled using the 2100 Bioanalyzer Instrument (Agilent Technologies, Santa Clara, Calif., USA), and sequenced with the MiSeq instrument (Illumina, San Diego, Calif., USA).
For testing prevention of AAI, mice received 50 mM D-tryptophan starting at least three days before the first sensitization until sacrificing on day 25. For microbiome analyses, the caecum was cut off and immediately stored at −80° C. until further processing.
Microbial Diversity. Bacterial diversity was assessed by molecular barcoding of 16S rRNA genes in caecum samples of six animals per group. To this end, DNA was directly extracted from the caecum using a kit based protocol (PowerSoil DNA Isolation Kit, MO BIO Laboratories, Carlsbad, Calif., USA). 315 bp fragments were amplified within the variable region V5 and V6 of the 16S rRNA gene using S-D-Bact-0785-a-S-18[5′-GGMTTAGATACCCBDGTA-3′] (SEQ ID NO: 1) and S-*-Univ-1100-a-A-15 [5′-[…]-3′] (SEQ ID NO: 2) as primers (Klindworth et al., Nucleic Acids Res. 2013 Jan. 7; 41(1):el). Sequencing of amplicons was performed on the Illumina MiSeq platform (Illumina, San Diego, Calif., USA) using paired end technology (see section “Bacterial 16S rRNA gene amplification and diversity analysis” herein). Sequences are deposited in NCBI accession number PRJNA304109.
Reads were analyzed with the software package QIIME. Operational taxonomic units (OTUs) were picked within the 13_8 version of the Greengenes reference database (McDonald et al., ISME J. 2012 March; 6(3):610-8) at a similarity level of 95% sequence identity. Sequences were subsampled to 15000 reads per sample, which reflects the number of reads obtained in the sample with the lowest number of reads after quality control. This number was still sufficient to reach a plateau when collectors' curves were calculated on the basis of OTU95. […]

SMILES: N[C@H](Cc1c[nH]c2ccccc12)C(=O)O [D-tryptophan]
- Th1 differentiation ([1]; 6 days): remained unaffected
- Th2 cell differentiation ([1]; 6 days): reduced
- lfng expression ([1]; Th1 conditions): remained unaffected
- II-4, Gata3 expression and II-13 secretion ([1]; Th2 conditions): reduced
- Foxp3 expression of Treg cells on mRNA and protein level ([1]; Treg conditions): increased
- impact on microbial community composition ([2]; AAI mice): significant
- abundance of Ruminococcaceae ([2]; AAI mice with D-Trp): 8.9%
- bacterial diversity (alpha-diversity) of AAI mice ([2]; AAI mice, 50 mM in drinking water): increased
- abundance of Rikenellaceae ([2]; D-Trp groups): 1.1-2.0%
- abundance of Lachnospiraceae ([2]; D-tryptophan treated AAI mice): 20.6%
- abundance of Lachnospiraceae ([2]; D-tryptophan treated mice without AAI): 27.5%
- relative abundance of Odoribacteraceae ([2]; both groups of supplemented animals): 3.9%
- members of the S24-7 family ([2]; mouse, in vivo): neither affected
